In one test the target is T1, AMPK beta 1 (Homo sapiens, UniProt Q13131+Q9Y478).
T1 construct: in-cell-ELISA for phospho-ACC (Acetyl-CoA carboxylase 1) in HepG2 cells (liver); endogenous in cells; host or cells: HepG2 (assignment to the beta 1 column inferred)
T1 sequence (Q9Y478 2-270 limits assumed): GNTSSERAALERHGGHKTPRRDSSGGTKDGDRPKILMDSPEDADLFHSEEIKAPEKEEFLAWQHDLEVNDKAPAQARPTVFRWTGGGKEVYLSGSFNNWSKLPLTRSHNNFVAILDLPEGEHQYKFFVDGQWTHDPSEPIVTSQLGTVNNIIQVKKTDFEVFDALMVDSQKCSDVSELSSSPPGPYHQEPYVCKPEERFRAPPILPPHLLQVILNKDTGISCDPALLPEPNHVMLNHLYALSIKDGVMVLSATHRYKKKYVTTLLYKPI
T1 sequence (Q13131 whole entry): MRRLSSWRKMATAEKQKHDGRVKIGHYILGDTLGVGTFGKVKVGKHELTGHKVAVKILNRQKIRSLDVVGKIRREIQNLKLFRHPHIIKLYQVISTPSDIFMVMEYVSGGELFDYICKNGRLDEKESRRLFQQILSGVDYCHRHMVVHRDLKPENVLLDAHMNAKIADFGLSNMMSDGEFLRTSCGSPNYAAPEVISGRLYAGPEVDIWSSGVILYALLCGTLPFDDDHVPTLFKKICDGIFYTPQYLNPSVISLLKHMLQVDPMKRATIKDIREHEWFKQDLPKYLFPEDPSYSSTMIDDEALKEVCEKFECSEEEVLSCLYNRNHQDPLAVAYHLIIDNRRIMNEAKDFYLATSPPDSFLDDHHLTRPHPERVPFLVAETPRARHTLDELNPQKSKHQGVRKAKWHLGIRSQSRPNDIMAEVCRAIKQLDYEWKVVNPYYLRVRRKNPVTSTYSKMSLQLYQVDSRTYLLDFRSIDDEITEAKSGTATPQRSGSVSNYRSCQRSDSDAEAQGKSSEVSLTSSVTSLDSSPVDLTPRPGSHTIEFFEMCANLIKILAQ
T1 sequence (P54619 whole entry partner): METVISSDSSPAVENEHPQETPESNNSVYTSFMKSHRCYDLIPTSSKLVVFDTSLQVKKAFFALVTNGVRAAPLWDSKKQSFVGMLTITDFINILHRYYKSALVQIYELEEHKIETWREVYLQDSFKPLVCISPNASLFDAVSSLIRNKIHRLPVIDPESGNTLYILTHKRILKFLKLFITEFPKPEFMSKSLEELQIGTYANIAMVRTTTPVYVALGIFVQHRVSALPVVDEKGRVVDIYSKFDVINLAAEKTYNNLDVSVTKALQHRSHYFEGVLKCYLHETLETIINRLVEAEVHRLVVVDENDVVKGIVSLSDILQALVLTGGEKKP
Description: in-cell-ELISA for phospho-ACC: activation of AMPK, beta 1 (HepG2 cells / C2C12 myotubes). In kind it is cell-based. As to conditions: 1 μM, 2 h, percentage activation over vehicle control. On the procedure:
Activation of AMPK by various compounds were measured using in-cell-ELISA for phospho-ACC (Acetyl-CoA carboxylase 1) in HepG2 cells (liver) and fully differentiated myotubes (C2C12 cells) grown in 96 well plate. Cells were treated with 1 μM, 3 μM or 10 μM of the molecule (Example) for 2 h in serum free DMEM media. After methanol fixation, cells were blocked with BSA followed by addition of anti-phospho ACC antibody (Cell Signaling) and HRP conjugated secondary antibody. Absorbance values taken at 450 nm were normalized with total DNA (Hoechest stain). Results were expressed as percentage activation over vehicle control.
Percentage activation at compound (Example) concentration of 1, 3 or 10 μM for compounds according to the invention are shown in the following table. The number of the compound corresponds to the number of the Example (Ex) in the experimental section.
Take `Cc1ccc(C2CC23C(=O)Nc2cc(F)c(-c4ccc(-c5ccc(-n6cccn6)cc5)cc4)cc23)cc1C(=O)O` (stereo not drawn) [Example 144]: the “Percentage activation of beta 1 at given concentration” value (“Percentage activation” for short) is recorded as 118% at 1 μM.

`Cc1ccc(C2CC23C(=O)Nc2cc(Cl)c(-c4ccc(-c5ccc(-n6cncn6)cc5)c(F)c4)cc23)cc1C(=O)O` (stereo not drawn) [Example 151]: the “Percentage activation” value came to 25% at 1 μM.

As for `CC(C)(C(=O)O)c1ccc(C2CC23C(=O)Nc2cc(F)c(-c4ccc(-c5ccc(-n6cncn6)cc5)cc4)cc23)cc1` (stereo not drawn) [Example 161], the “Percentage activation” value is given as 115% at 1 μM.

Turning to `Cc1ccc(C2CC23C(=O)Nc2cc(F)c(-c4ccc(-c5ccc(-n6cncn6)cc5)cc4)cc23)cc1C(=O)O` (stereo not drawn) [Example 147], the “Percentage activation” value is given as 32% at 1 μM.

For the molecule `Cc1ccc(C2CC23C(=O)Nc2cc(Cl)c(-c4ccc(-c5ccc(-n6cncn6)cc5)c(F)c4)cc23)cc1C(=O)O` (stereo not drawn) [Example 152], the “Percentage activation” value turned out to be 95% at 1 μM.

In the case of `Cc1ccc(C2CC23C(=O)Nc2cc(Cl)c(-c4ccc(-c5ccc(-n6cncn6)cc5)cc4)cc23)cc1C(=O)O` (stereo not drawn) [Example 119], the “Percentage activation” value turned out to be 99% at 1 μM.

As for `Cc1ccc(C2CC23C(=O)Nc2cc(F)c(-c4ccc(-c5ccc(-n6cncn6)cc5)cc4)cc23)cc1C(=O)O` (stereo not drawn) [Example 148], the “Percentage activation” value stood at 127% at 1 μM.

The test is the same for the next values; noted with them: 10 μM, 2 h, percentage activation over vehicle control.
For the molecule `Cc1ccc(C2CC23C(=O)Nc2cc(Cl)c(-c4ccc(C5(CO)CC5)cc4)cc23)cc1C(=O)O` (stereo not drawn) [Example 44], the “Percentage activation” value amounted to 11% at 10 μM.

On to `O=C(O)Cc1cccc(C2CC23C(=O)Nc2cc(Cl)c(-c4ccc(-c5ccccc5O)cn4)cc23)c1` (stereo not drawn) [Example 17], for which the “Percentage activation” value amounted to 88% at 10 μM.

Staying with this test, now noted: 2 h, 1 μM, percentage activation over vehicle control, read-out: Percentage activation of beta 1 at given concentration.
Take `O=C(O)Cc1cccc(C2CC23C(=O)Nc2cc(F)c(-c4ccc(-c5ccc(-n6ccnn6)cc5)cc4)cc23)c1` (stereo not drawn) [Example 174]: the activation at 1 µM was 87%.

Regarding `Cc1ccc(C2CC23C(=O)Nc2cc(Cl)c(-c4ccc(-c5ccncc5)cc4)cc23)cc1CC(=O)O` (stereo not drawn) [Example 63], the activation at 1 µM was found to be 42%.

As for `Cc1ccc(C2CC23C(=O)Nc2c3cc(-c3ccc(-c4ccc(-n5cccn5)cc4)cc3)c(Cl)c2Cl)cc1C(=O)O` (stereo not drawn) [Example 153], the activation at 1 µM is 10%.

The same test, now with this note: 2 h, 3 μM, percentage activation over vehicle control, read-out: Percentage activation of beta 1 at given concentration.
For `Cc1ccc(C2CC23C(=O)Nc2cc(Cl)c(-c4ccc(-c5ccccc5O)cc4)cc23)cc1C(=O)Nc1nnn[nH]1` (stereo not drawn) [Example 183], the activation at 3 µM was found to be 19%.

Consider `CC(C)c1ccc(C2CC23C(=O)Nc2cc(Cl)c(-c4ccc(-c5ncccc5O)cc4)cc23)cc1C(=O)O` (stereo not drawn) [Example 23], for which the activation at 3 µM is 63%.

As to `CN1C(=O)C2(CC2c2ccc(C(C)(C)C(=O)O)cc2)c2cc(-c3ccc(-c4ccncc4)cc3)c(Cl)cc21` (stereo not drawn) [Example 112], the activation at 3 µM amounted to 30%.

With `O=C1Nc2cc(F)c(-c3ccc(-c4ccccc4O)cc3)cc2C12CC2c1cccc(-c2nnn[nH]2)c1` (stereo not drawn) [Example 179], the activation at 3 µM amounted to 23%.

As to `COc1ccc(C2CC23C(=O)Nc2cc(Cl)c(-c4ccc(-c5ccc(-n6cccn6)cc5)cc4)cc23)cc1C(=O)O` (stereo not drawn) [Example 121], the activation at 3 µM was 91%.

In the case of `Cc1ccc(C2CC23C(=O)N(C(C)C)c2cc(Cl)c(-c4ccc(-c5ccncc5)cc4)cc23)cc1C(=O)O` (stereo not drawn) [Example 104], the activation at 3 µM is 56%.

Turning to `CCN1C(=O)C2(CC2c2ccc(OC)c(CC(=O)O)c2)c2cc(-c3ccc(-c4ccncc4)cc3)c(Cl)cc21` (stereo not drawn) [Example 110], the activation at 3 µM came out at 58%.

Take `Cc1ccc(C2CC23C(=O)Nc2cc(F)c(-c4ccc(-c5ccncc5)cc4)cc23)cc1C(=O)O` (stereo not drawn) [Example 81]: the activation at 3 µM is 55%.

As to `Cc1ccc(C2CC23C(=O)Nc2cc(Cl)c(-c4ccc(-c5ccccc5O)cc4)cc23)cc1C(=O)O` (stereo not drawn) [Example 28], the activation at 3 µM was 104%.

For the molecule `CC(C)c1ccc(C2CC23C(=O)Nc2cc(Cl)c(-c4ccc(-c5ccc(-n6cncn6)cc5)cc4)cc23)cc1C(=O)O` (stereo not drawn) [Example 131], the activation at 3 µM was 47%.

For the molecule `Cc1ccc(C2CC23C(=O)Nc2cc(F)c(-c4ccc(-c5ccccc5O)cc4)cc23)cc1CC(=O)O` (stereo not drawn) [Example 6], the activation at 3 µM came to 66%.

With `Cc1ccc(C2CC23C(=O)Nc2cc(F)c(-c4ccc(-c5ccc(-n6cccn6)cc5)cc4)cc23)cc1C(=O)O` (stereo not drawn) [Example 141], the activation at 3 µM worked out at 104%.

`COCN1C(=O)C2(CC2c2ccc(C)c(C(=O)O)c2)c2cc(-c3ccc(-c4ccncc4)cc3)c(Cl)cc21` (stereo not drawn) [Example 99]: the activation at 3 µM amounted to 66%.

Turning to `COc1ccc(C2CC23C(=O)Nc2cc(Cl)c(-c4ccc(-c5ccncc5)cc4)cc23)cc1CC(=O)O` (stereo not drawn) [Example 70], the activation at 3 µM was 59%.

Consider `Cc1ccc(C2CC23C(=O)Nc2cc(Cl)c(-c4ccc(-c5ccc(-c6nnn[nH]6)cc5)cc4)cc23)cc1C(=O)O` (stereo not drawn) [Example 136], for which the activation at 3 µM stood at 19%.

Regarding `Cc1ccc(C2CC23C(=O)Nc2cc(Cl)c(-c4ccc(-c5ccncc5O)cc4)cc23)cc1C(=O)O` (stereo not drawn) [Example 21], the activation at 3 µM was 93%.

Take `Cc1ccc(C2CC23C(=O)Nc2cc(Cl)c(-c4ccc(-c5ccncc5)cc4)cc23)cc1CC(=O)O` (stereo not drawn) [Example 64]: the activation at 3 µM was found to be 81%.

For the molecule `Cc1ccc(C2CC23C(=O)Nc2cc(Cl)c(-c4ccc(-c5ccncc5)c(F)c4)cc23)cc1C(=O)O` (stereo not drawn) [Example 67], the activation at 3 µM was 80%.

Regarding `CC(C)c1ccc(C2CC23C(=O)Nc2cc(Cl)c(-c4ccc(N5CCC[C@@H]5CO)cc4)cc23)cc1C(=O)O` (stereo partly drawn) [Example 50], the activation at 3 µM turned out to be 68%.

As for `CC(C)(C(=O)O)c1ccc(C2CC23C(=O)Nc2cc(Cl)c(-c4ccc(-c5ccc(-n6cncn6)cc5)cc4)cc23)cc1` (stereo not drawn) [Example 137], the activation at 3 µM was determined as 48%.

With `Cn1cc(C2CC23C(=O)Nc2cc(Cl)c(-c4ccc(-c5ccccc5O)cc4)cc23)cc1C(=O)O` (stereo not drawn) [Example 43], the activation at 3 µM worked out at 43%.

With `CC(C)c1ccc(C2CC23C(=O)Nc2cc(Cl)c(-c4ccc(N5CCC[C@H]5CO)cc4)cc23)cc1C(=O)O` (stereo partly drawn) [Example 51], the activation at 3 µM worked out at 34%.

Turning to `COc1ccc(C2CC23C(=O)Nc2cc(F)c(-c4ccc(-c5ccccc5O)cc4)cc23)cc1C(=O)O` (stereo not drawn) [Example 11], the activation at 3 µM came to 64%.

As for `Cc1ccc(C2CC23C(=O)Nc2cc(Cl)c(-c4ccc(N5CCC[C@H]5CO)cc4)cc23)cc1C(=O)O` (stereo partly drawn) [Example 49], the activation at 3 µM is 53%.

The same test, now with this note: 2 h, 10 μM, percentage activation over vehicle control, read-out: Percentage activation of beta 1 at given concentration.
For `Cc1ccc(C2CC23C(=O)Nc2cc(Cl)c(-c4ccc(-c5ccccc5S(C)(=O)=O)cc4)cc23)cc1C(=O)O` (stereo not drawn) [Example 87], the activation at 10 µM turned out to be 47%.

As to `Cc1ccc(C2CC23C(=O)Nc2cc(Cl)c(S(=O)(=O)Nc4ccccc4O)cc23)cc1C(=O)O` (stereo not drawn) [Example 92], the activation at 10 µM was 16%.

`Cc1ccc(C2CC23C(=O)Nc2cc(Cl)c(-c4ccc(-c5cnn(C)c5)cc4)cc23)cc1C(=O)O` (stereo not drawn) [Example 85]: the activation at 10 µM is 127%.

Turning to `O=C(O)c1cccc(C2CC23C(=O)Nc2cc(F)c(-c4ccc(-c5ccccc5O)cc4)cc23)c1` (stereo not drawn) [Example 1], the activation at 10 µM turned out to be 102%.

For the molecule `Cc1ccc(C2CC23C(=O)Nc2cc(Cl)c(-c4ccc(N5CCOCC5)c(F)c4)cc23)cc1C(=O)O` (stereo not drawn) [Example 71], the activation at 10 µM worked out at 40%.

`COc1ccc(C2CC23C(=O)Nc2cc(Cl)c(-c4ccc(-c5ccccc5)cn4)cc23)cc1C(=O)O` (stereo not drawn) [Example 77]: the activation at 10 µM was 17%.

In the case of `CCn1cc(C2CC23C(=O)Nc2cc(Cl)c(-c4ccc(-c5ccccc5O)cc4)cc23)cc1C(=O)O` (stereo not drawn) [Example 39], the activation at 10 µM came out at 28%.

Turning to `Cc1ccc(C2CC23C(=O)Nc2cc(Cl)c(-c4ccc(-c5ccccc5)cn4)cc23)cc1C(=O)O` (stereo not drawn) [Example 75], the activation at 10 µM is 54%.

For the molecule `Cc1ccc(C2CC23C(=O)Nc2cc(F)c(-c4ccc(-c5ccccc5O)cc4)cc23)cc1C(=O)O` (stereo not drawn) [Example 4], the activation at 10 µM stood at 83%.

On to `COc1ccc(C2CC23C(=O)Nc2cc(Cl)c(-c4ccc(-c5ccncc5)cc4)cc23)cc1C(=O)O` (stereo not drawn) [Example 73], for which the activation at 10 µM is 23%.

Take `Cn1c(C(=O)O)ccc1C1CC12C(=O)Nc1cc(Cl)c(-c3ccc(-c4ccccc4O)cc3)cc12` (stereo not drawn) [Example 42]: the activation at 10 µM is 42%.

`Cc1ccc(C2CC23C(=O)Nc2cc(Cl)c(-c4ccc(-c5ccncc5)cc4)nc23)cc1C(=O)O` (stereo not drawn) [Example 83]: the activation at 10 µM stood at 92%.

Regarding `Cc1ccc(C2CC23C(=O)Nc2cc(Cl)c(-c4ccc5[nH]ccc5c4)cc23)cc1C(=O)O` (stereo not drawn) [Example 94], the activation at 10 µM is 137%.

Consider `Cn1cc(C2CC23C(=O)Nc2cc(F)c(-c4ccc(-c5ccccc5O)cc4)cc23)cc1C(=O)O` (stereo not drawn) [Example 13], for which the activation at 10 µM stood at 11%.

For `Cc1ccc(C2CC23C(=O)Nc2cc(F)c(-c4ccc(-c5ccccc5O)cc4)cc23)cc1CC(=O)O` (stereo not drawn) [Example 3], the activation at 10 µM is 166%.

Take `Cc1ccc(C2CC23C(=O)N(C)c2cc(F)c(-c4ccc(-c5ccccc5O)cc4)cc23)cc1C(=O)O` (stereo not drawn) [Example 15]: the activation at 10 µM was 176%.

Consider `Cc1ccc(C2CC23C(=O)Nc2cc(Cl)c(S(=O)(=O)NC4CCC4)cc23)cc1C(=O)O` (stereo not drawn) [Example 91], for which the activation at 10 µM was 10%.

In the case of `Cc1ccc(C2CC23C(=O)Nc2cc(Cl)c(S(=O)(=O)NC4CC4)cc23)cc1C(=O)O` (stereo not drawn) [Example 90], the activation at 10 µM was found to be 25%.

The record behind these values is patent US20160130226A1, “SPIRO-SUBSTITUTED OXINDOLE DERIVATIVES HAVING AMPK ACTIVITY” (BOEHRINGER INGELHEIM INTERNATIONAL GMBH, priority 2013, published 2016).
